Reference: publication PMC8343220, “The selectivity of α‐adrenoceptor agonists for the human α1A, α1B, and α1D‐adrenoceptors” (Pharmacology Research & Perspectives, 2021)

What was measured:
[1] = biological target: T1, human α1B‐adrenoceptor (Homo sapiens, UniProt P35368); settings: CHO‐α1B cells; given as log KD (negative); ligands marked ^a; ref Proudman et al., 2020; cited from earlier work
T1 construct: expressed in transfected cells; host or cells: CHO-K1
T1 sequence (P35368 1-520): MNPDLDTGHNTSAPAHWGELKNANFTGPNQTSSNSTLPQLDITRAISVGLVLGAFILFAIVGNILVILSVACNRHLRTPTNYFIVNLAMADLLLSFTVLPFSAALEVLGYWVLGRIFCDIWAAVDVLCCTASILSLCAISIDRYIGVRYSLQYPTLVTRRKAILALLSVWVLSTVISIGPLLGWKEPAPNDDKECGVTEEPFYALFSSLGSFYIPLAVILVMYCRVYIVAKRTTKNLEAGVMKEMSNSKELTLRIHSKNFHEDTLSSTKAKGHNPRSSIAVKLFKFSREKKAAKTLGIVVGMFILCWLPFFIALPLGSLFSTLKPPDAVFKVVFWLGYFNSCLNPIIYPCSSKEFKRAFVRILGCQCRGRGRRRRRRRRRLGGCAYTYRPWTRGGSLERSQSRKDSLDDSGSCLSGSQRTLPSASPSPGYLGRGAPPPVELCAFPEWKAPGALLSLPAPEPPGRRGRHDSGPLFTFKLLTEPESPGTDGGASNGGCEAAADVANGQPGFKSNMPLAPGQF

[2] = biological target: T2, human α1A‐adrenoceptor (Homo sapiens, UniProt P35348); test: Intracellular free calcium mobilization, CHO‐α1A cells; assay type: cell-based; settings: CHO‐α1A cells; for Intracellular calcium release Log EC50: given as log EC50 (negative); for Intracellular calcium release % ionomycin: maximal response as % of 10 µM ionomycin
T2 construct: expressed in transfected cells; host or cells: CHO-K1
T2 sequence (P35348 1-466): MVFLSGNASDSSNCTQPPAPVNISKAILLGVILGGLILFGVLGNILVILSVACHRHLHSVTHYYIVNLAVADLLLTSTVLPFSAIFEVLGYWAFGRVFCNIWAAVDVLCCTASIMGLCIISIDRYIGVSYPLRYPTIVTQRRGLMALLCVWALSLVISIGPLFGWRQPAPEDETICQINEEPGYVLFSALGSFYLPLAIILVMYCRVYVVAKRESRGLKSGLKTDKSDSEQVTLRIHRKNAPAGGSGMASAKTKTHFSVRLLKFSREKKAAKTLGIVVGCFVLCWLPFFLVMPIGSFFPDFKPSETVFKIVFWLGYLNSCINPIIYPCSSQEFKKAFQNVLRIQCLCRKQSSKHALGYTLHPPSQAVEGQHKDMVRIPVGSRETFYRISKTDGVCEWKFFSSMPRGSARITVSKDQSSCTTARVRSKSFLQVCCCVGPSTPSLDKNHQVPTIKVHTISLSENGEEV

[3] = biological target: T3, human α1D‐adrenoceptor (full length) (Homo sapiens, UniProt P25100); test: ERK1/2‐phosphorylation (Surefire Alphascreen), CHO‐α1D cells; assay type: cell-based; settings: CHO‐α1D cells; for ERK1/2‐phosphorylation % PDBu: maximal response as % of PDBu
T3 construct: human α1D‐adrenoceptor (full length) were used; expressed in transfected cells; host or cells: CHO-K1
T3 sequence (P25100 1-572): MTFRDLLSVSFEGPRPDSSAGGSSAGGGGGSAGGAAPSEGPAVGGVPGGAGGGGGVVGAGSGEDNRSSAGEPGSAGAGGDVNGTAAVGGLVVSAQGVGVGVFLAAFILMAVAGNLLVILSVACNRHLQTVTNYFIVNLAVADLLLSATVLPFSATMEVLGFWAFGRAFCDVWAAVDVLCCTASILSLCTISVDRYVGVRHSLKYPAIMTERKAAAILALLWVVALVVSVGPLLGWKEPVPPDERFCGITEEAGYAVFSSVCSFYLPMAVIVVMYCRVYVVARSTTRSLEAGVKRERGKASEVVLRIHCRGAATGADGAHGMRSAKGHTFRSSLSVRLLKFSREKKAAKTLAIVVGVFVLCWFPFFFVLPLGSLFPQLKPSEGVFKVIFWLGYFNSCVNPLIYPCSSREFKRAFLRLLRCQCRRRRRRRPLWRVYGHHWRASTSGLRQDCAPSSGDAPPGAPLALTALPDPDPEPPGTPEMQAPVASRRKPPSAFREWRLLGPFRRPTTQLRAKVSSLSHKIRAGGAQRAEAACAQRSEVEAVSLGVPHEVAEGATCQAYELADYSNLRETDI

[4] = biological target: T3, human α1D‐adrenoceptor (full length); test: Intracellular free calcium mobilization, CHO‐α1D cells; assay type: cell-based; settings: CHO‐α1D cells; for Intracellular calcium release % ionomycin: maximal response as % of 10 µM ionomycin
[5] = biological target: T2, human α1A‐adrenoceptor; test: ERK1/2‐phosphorylation (Surefire Alphascreen), CHO‐α1A cells; assay type: cell-based; settings: CHO‐α1A cells, ^a bi‐phasic: initial stimulatory part; for ERK1/2‐phosphorylation % PDBu: % of 10 µM PDBu
[6] = biological target: T2, human α1A‐adrenoceptor; test: ^3H‐cAMP accumulation, CHO‐α1A cells; assay type: cell-based; settings: CHO‐α1A cells; for cAMP accumulation Log EC50: 5 h; for cAMP accumulation % forskolin: % of 10 µM forskolin response
[7] = test system: parental CHO cell line without any transfected receptors; test: ERK1/2‐phosphorylation, parent CHO cells without transfected receptors; assay type: cell-based, Chinese hamster; settings: CHO cells without transfected receptors
[8] = biological target: T3, human α1D‐adrenoceptor (full length); settings: CHO‐α1D cells; ligands marked ^a; ref Proudman et al., 2020; cited from earlier work
[9] = biological target: T1, human α1B‐adrenoceptor; test: ERK1/2‐phosphorylation (Surefire Alphascreen), CHO‐α1B cells; assay type: cell-based; settings: CHO‐α1B cells; for ERK1/2‐phosphorylation % PDBu: maximal response as % PDBu response, for bi‐phasic responses the initial stimulatory part
[10] = biological target: T2, human α1A‐adrenoceptor; settings: CHO‐α1A cells; given as log KD (negative); ligands marked ^a; ref Proudman et al., 2020; cited from earlier work
[11] = biological target: T1, human α1B‐adrenoceptor; test: Intracellular free calcium mobilization, CHO‐α1B cells; assay type: cell-based; settings: CHO‐α1B cells; for Intracellular calcium release % Ionomycin at 100 µM: response at 100 µM ligand (no EC50 given), % of ionomycin response
[12] = test system: parental CHO cell line without any transfected receptors; test: Forskolin‐stimulated cAMP accumulation, parent CHO cells without transfected receptors; assay type: cell-based, Chinese hamster; settings: CHO cells without transfected receptors
[13] = biological target: T2, human α1A‐adrenoceptor; test: ^3H‐prazosin whole‐cell radioligand binding, CHO‐α1A cells; settings: higher affinity for α1A than α1B
[14] = biological target: T3, human α1D‐adrenoceptor (full length); test: ^3H‐prazosin whole‐cell radioligand binding, CHO‐α1D cells
[15] = biological target: T2, human α1A‐adrenoceptor; test: ^3H‐cAMP accumulation in the presence of 10 μM forskolin, CHO‐α1A cells; assay type: cell-based; settings: CHO‐α1A cells; for cAMP accumulation (in presence of forskolin) Log EC50: 10 μM forskolin
[16] = response at 100 µM ligand (no EC50 given)

Row | Structure (SMILES) | Log KD α1B, ^3H‐prazosin whole cell binding [1] | Intracellular calcium release Log EC50 [2] | Intracellular calcium release % ionomycin [2] [%] | ERK1/2‐phosphorylation % PDBu [3] | Intracellular calcium release % ionomycin [4] | ERK1/2‐phosphorylation % PDBu [5] [%] | cAMP accumulation Log EC50 [6] | cAMP accumulation % forskolin [6] | % site 1 (% of the response at the first component), α1D two‐component binding curve [8] [%] | ERK1/2‐phosphorylation % PDBu [9] | Log KD α1A, ^3H‐prazosin whole cell binding [10] | Intracellular calcium release % Ionomycin at 100 µM [11] [%] | cAMP accumulation (in presence of forskolin) Log EC50 [15] | also measured
1 | COc1ccccc1N1CCN(CCN2C(=O)c3ccccc3C(C)(C)C2=O)CC1 [ARC239] | −8.15 ± 0.07 | −7.99 ± 0.19 | 20.8 ± 2.0 | No response | No response | 29.2 ± 3.8 | −8.41 ± 0.23 | 1.2 ± 0.2% | 60.5 ± 1.4 | No response | −9.35 ± 0.08 | 4.8 ± 1.7 |  | ERK1/2-phosphorylation % PDBu ([7]; maximal response as % of PDBu (10μM) response, mean ± s.e.m.): No response; cAMP accumulation (in presence of forskolin) Log EC50 ([12]; in presence of forskolin): No response
2 | CC1c2ccccc2CN1CC1=NCCN1 (stereo not shown) [BRL44408] | −4.68 ± 0.07 | −7.24 ± 0.10 | 36.5 ± 5.4 |  |  | 77.4 ± 4.1 | −6.27 ± 0.17 | 4.7 ± 0.5% |  |  | −5.92 ± 0.09 | 13.7 ± 6.5 | −6.43 ± 0.09 | Affinity selectivity ratio α1A vs α1B [13]: 17.4 fold; Log efficacy ratio KD /EC50 ([2]; binding KD and calcium EC50): 1.32; ERK1/2‐phosphorylation % PDBu at 100 µM [3, 16]: 47.4 ± 5.7%; Intracellular calcium release % Ionomycin at 100 µM [4, 16]: 4.5 ± 2.1%; ERK1/2‐phosphorylation Log EC50 ([5]; 2–4 min, ^b also active in parent CHO cells): −7.03 ± 0.14; ERK1/2-phosphorylation % PDBu at 100μM ([7]; response at 100μM only, EC50 not obtainable, % of PDBu (10μM)): 17.6 ± 8.1%; 3H‐prazosin binding Log KD ([14]; CHO‐α1D cells, whole‐cell binding (from Table 1), log values given negative): −5.06; Affinity selectivity ratio α1B vs α1D ([14]; higher affinity for α1D than α1B): 2.4 fold; cAMP accumulation (in presence of forskolin) Fold increase ([15]; fold increase of the forskolin response): 1.62 ± 0.08 fold; Log KD α1D, ^3H‐prazosin whole cell binding (single site or first, higher affinity component) [8]: −5.06 ± 0.05; ERK1/2‐phosphorylation % PDBu at 100 µM [9, 16]: 47.0 ± 7.0%; cAMP accumulation (in presence of forskolin) % forskolin-stim cAMP at 100μM ([12]; response at 100μM only, EC50 not obtainable, % of forskolin-stimulated cAMP): 77.6 ± 2.3%
3 | COc1ccccc1N1CCN(CC2CN3C(=O)N(C)c4ccccc4C3=N2)CC1 (stereo not shown) [2‐MPMDQ] | −7.37 ± 0.04 | −7.69 ± 0.08 | 19.7 ± 2.0 | No response | No response | 13.6 ± 3.7 | No response | No response | 64.0 ± 2.1 | No response | −9.06 ± 0.07 | 3.1 ± 1.5 | No response | 
4 | O=C1Nc2ccccc2C2=NC(CN3CCN(c4ccccc4)CC3)CN12 (stereo not shown) [2‐PMDQ] | −6.95 ± 0.05 | −7.63 ± 0.13 | 16.6 ± 1.8 | No response | No response | 10.4 ± 3.4 | No response | No response | 57.6 ± 2.8 |  | −8.19 ± 0.09 |  | No response | Intracellular calcium release Log EC50 ([11]; given as log EC50 (negative numbers)): No response; Intracellular calcium release % ionomycin ([11]; maximal response as % of 10 µM ionomycin response): No response
